# Experimental data published in patent US10144706B2 (BRISTOL-MYERS SQUIBB COMPANY, priority 2016, dated 2018).
# Target: T1, PD-1/PD-L1 interaction (PD-1-Ig / PD-L1-His) (Homo sapiens, UniProt Q9NZQ7)
# T1 construct: hPDL1(18-239)-TVMV-His; TVMV protease site linker (C); made in house; host or cells: HEK293T
# Test: PD-1/PD-L1 Homogenous Time-Resolved Fluorescence (HTRF) binding assay
# Settings: IC50 range class; PD-L1-His 10 nM, PD-1-Ig 20 nM; read-out: Range or IC50
# From the text: The ability of the compounds of formula (I) to bind to PD-L1 was investigated using a PD-1/PD-L1 Homogenous Time-Resolved Fluorescence (HTRF) binding assay.
# Homogenous Time-Resolved Fluorescence (HTRF) Binding Assay.
# The interaction of PD-1 and PD-L1 can be assessed using soluble, purified preparations of the extracellular domains of the two proteins. The PD-1 and PD-L1 protein extracellular domains were expressed as fusion proteins with detection tags, for PD-1, the tag was the Fc portion of Immunoglobulin (PD-1-Ig) and for PD-L1 it was the 6 histidine motif (PD-L1-His). All binding studies were performed in an HTRF assay buffer consisting of dPBS supplemented with 0.1% […] bovine serum albumin and 0.05% (v/v) Tween-20. For the h/PD-L1-His binding assay, inhibitors were pre-incubated with PD-L1-His (10 nM final) for 15 m in 4 μl of assay buffer, followed by addition of PD-1-Ig (20 nM final) in 1 μl of assay buffer and further incubation for 15 m. HTRF detection was achieved using europium crypate-labeled anti-Ig (1 nM final) and allophycocyanin (APC) labeled anti-His (20 nM final). Antibodies were diluted in HTRF detection buffer and 5 μl was dispensed on top of the binding reaction. […] Additional binding assays were established between the human proteins PD-1-Ig/PD-L2-His (20 & 5 nM, respectively) and CD80-His/PD-L1-Ig (100 & 10 nM, respectively). […]
# T1 sequence (Q9NZQ7 with tags, fused parts or gaps): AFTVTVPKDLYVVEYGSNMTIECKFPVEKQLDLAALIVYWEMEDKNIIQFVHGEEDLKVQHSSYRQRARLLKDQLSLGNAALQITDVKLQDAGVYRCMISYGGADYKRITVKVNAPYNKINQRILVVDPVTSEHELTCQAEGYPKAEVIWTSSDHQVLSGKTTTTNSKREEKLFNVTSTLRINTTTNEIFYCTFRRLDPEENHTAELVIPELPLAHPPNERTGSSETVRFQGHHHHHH
row,Compound,IC50 [nM]
1,"Cc1c(OCCCN2CCC(O)(C(=O)O)CC2)cccc1-c1cccc(OCCCN2CCC(O)(C(=O)O)CC2)c1Cl [Example 1002, 1,1′-(((2-chloro-2′-methyl-[1,1′-biphenyl]-3,3′-diyl)bis(oxy))bis(propane-3,1-diyl))bis(4-hydroxypiperidine-4-carboxylic acid)]",0.04 to 20
2,Cc1c(COc2cc(OCc3cncc(C#N)c3)c(CN3CCC[C@H]3C(N)=O)cc2Cl)cccc1-c1cccc(COc2cc(OCc3cncc(C#N)c3)c(CN3CCC[C@H]3C(N)=O)cc2Cl)c1C [Example 40680],90.1 to 1000
3,"Cc1c(OCCCN(CCO)CCO)cccc1-c1cccc(OCCCN2CC[C@@H](O)C2)c1C [Example 2068, (R)-2,2′-((3-((3′-(3-(3-hydroxypyrrolidin-1-yl)propoxy)-2,2′-dimethyl-[1,1′-biphenyl]-3-yl)oxy)propyl)azanediyl)bis(ethan-1-ol)]",90.1 to 1000
4,"Cc1c(COc2cc(OCc3ccc(-n4cccn4)nc3)c(CN(C)[C@H](C(=O)O)[C@@H](C)O)cc2Cl)cccc1-c1cccc(COc2cc(OCc3ccc(-n4cccn4)nc3)c(CN(C)[C@H](C(=O)O)[C@@H](C)O)cc2Cl)c1C [Example 5029, (2S,2′S,3R,3′R)-2,2′-((((((2,2′-dimethyl-[1,1′-biphenyl]-3,3′-diyl)bis(methylene))bis(oxy))bis(2-((6-(1H-pyrazol-1-yl)pyridin-3-yl)methoxy)-5-chloro-4,1-phenylene))bis(methylene))bis(methylazanediyl))bis(3-hydroxybutanoic acid)]",20.1 to 90
5,"Cc1c(OCCCNCC2CCN(C)CC2)cccc1-c1cccc(OCCCN2CC[C@@H](O)C2)c1C [Example 2044, (R)-1-(3-((2,2′-dimethyl-3′-(3-(((1-methylpiperidin-4-yl)methyl)amino)propoxy)-[1,1′-biphenyl]-3-yl)oxy)propyl)pyrrolidin-3-ol]",90.1 to 1000
6,"Cc1c(OCCCN(CCO)CCC(C)C)cccc1-c1cccc(OCCCN2CC[C@@H](O)C2)c1C [Example 2073, (R)-1-(3-((3′-(3-((2-hydroxyethyl)(isopentyl)amino)propoxy)-2,2′-dimethyl-[1,1′-biphenyl]-3-yl)oxy)propyl)pyrrolidin-3-ol]",20.1 to 90
7,"Cc1c(OCCCN[C@@H](Cc2ccncc2)C(=O)O)cccc1-c1cccc(OCCCN2CC[C@@H](O)C2)c1C [Example 2037, (S)-2-((3-((3′-(3-((R)-3-hydroxypyrrolidin-1-yl)propoxy)-2,2′-dimethyl-[1,1′-biphenyl]-3-yl)oxy)propyl)amino)-3-(pyridin-4-yl)propanoic acid]",90.1 to 1000
8,"COc1cc(OCc2cccc(-c3cccc(COc4cc(OCc5cncc(C#N)c5)c(CN(C)CCC(=O)O)cc4Cl)c3C)c2C)c(Cl)cc1CN(C)CCC(=O)O [Example 5031, 3-((4-((3′-((4-(((2-carboxyethyl)(methyl)amino)methyl)-2-chloro-5-((5-cyanopyridin-3-yl)methoxy)phenoxy)methyl)-2,2′-dimethyl-[1,1′-biphenyl]-3-yl)methoxy)-5-chloro-2-methoxybenzyl)(methyl)amino)propanoic acid]",0.04 to 20
9,"Cc1cc(OCc2cccc(-c3cccc(COc4cc(OCc5cncc(C#N)c5)c(CNCCC(=O)O)cc4Cl)c3C)c2C)c(Cl)cc1CNCCC(=O)O [Example 5504, 3-((4-((3′-((4-(((2-carboxyethyl)amino)methyl)-2-chloro-5-((5-cyanopyridin-3-yl)methoxy)phenoxy)methyl)-2,2′-dimethyl-[1,1′-biphenyl]-3-yl)methoxy)-5-chloro-2-methylbenzyl)amino)propanoic acid]",0.04 to 20
10,C[C@@](CO)(NCc1cc(Cl)c(OCc2cccc(-c3cccc(COc4cc(OCc5cncc(C#N)c5)c(CN[C@@](C)(CO)C(=O)O)cc4Cl)c3Cl)c2Cl)cc1O)C(=O)O [Example 41170],0.04 to 20
11,"Cc1c(OCCCNCCc2ccc(N)cc2)cccc1-c1cccc(OCCCN2CC[C@@H](O)C2)c1C [Example 2065, (R)-1-(3-((3′-(3-((4-aminophenethyl)amino)propoxy)-2,2′-dimethyl-[1,1′-biphenyl]-3-yl)oxy)propyl)pyrrolidin-3-ol]",20.1 to 90
12,"Cc1c(COc2cc(OCc3cncc(C#N)c3)c(CNC(CO)CO)cc2Cl)cccc1-c1cccc(COc2cc(OCc3cncc(C#N)c3)c(CNC(CO)CO)cc2Cl)c1C [Example 2128, 5,5′-((((((2,2′-dimethyl-[1,1′-biphenyl]-3,3′-diyl)bis(methylene))bis(oxy))bis(4-chloro-6-(((1,3-dihydroxypropan-2-yl)amino)methyl)-3,1-phenylene))bis(oxy))bis(methylene))dinicotinonitrile]",0.04 to 20
13,"Cc1c(OCCCN2CC[C@@H](O)C2)cccc1-c1cccc(OCCCN2C[C@H](O)C[C@H]2C(=O)O)c1C [Example 2039, (2S,4R)-4-hydroxy-1-(3-((3′-(3-((R)-3-hydroxypyrrolidin-1-yl)propoxy)-2,2′-dimethyl-[1,1′-biphenyl]-3-yl)oxy)propyl)pyrrolidine-2-carboxylic acid]",1000 to 10000
14,Cc1c(COc2cc(OCc3cncc(C#N)c3)c(CN[C@@H](C(=O)O)[C@@H](C)O)cc2Cl)cccc1-c1cccc(COc2cc(OCc3cncc(C#N)c3)c(CN[C@@H](C(=O)O)[C@@H](C)O)cc2Cl)c1C [Example 40890],0.04 to 20
15,Cc1c(COc2cc(OCc3cncc(C#N)c3)c(CN[C@@H](CCO)C(=O)O)cc2Cl)cccc1-c1cccc(COc2cc(OCc3cncc(C#N)c3)c(CN[C@@H](CCO)C(=O)O)cc2Cl)c1C [Example 40740],0.04 to 20
16,Cc1c(COc2cc(OCc3cncc(C#N)c3)c(CN3CC(C(=O)O)C3)cc2Cl)cccc1-c1cccc(COc2cc(OCc3cncc(C#N)c3)c(CN3CC(C(=O)O)C3)cc2Cl)c1C [Example 40420],0.04 to 20
17,CSCCC(NCc1cc(Cl)c(OCc2cccc(-c3cccc(COc4cc(OCc5cncc(C#N)c5)c(CNC(CCSC)C(=O)O)cc4Cl)c3C)c2C)cc1OCc1cncc(C#N)c1)C(=O)O (stereo not drawn) [Example 40450],0.04 to 20
18,"CCCN(CCO)CCCOc1cccc(-c2cccc(OCCCN3CC[C@@H](O)C3)c2C)c1C [Example 2053, (R)-1-(3-((3′-(3-((2-hydroxyethyl)(propyl)amino)propoxy)-2,2′-dimethyl-[1,1′-biphenyl]-3-yl)oxy)propyl)pyrrolidin-3-ol]",90.1 to 1000
19,"Cc1c(OCCCNCCn2cc(Cl)cn2)cccc1-c1cccc(OCCCN2CC[C@@H](O)C2)c1C [Example 2060, (R)-1-(3-((3′-(3-((2-(4-chloro-1H-pyrazol-1-yl)ethyl)amino)propoxy)-2,2′-dimethyl-[1,1′-biphenyl]-3-yl)oxy)propyl)pyrrolidin-3-ol]",20.1 to 90
20,"CCN(CC)C(=O)C1CCCN(CCCOc2cccc(-c3cccc(OCCCN4CC[C@@H](O)C4)c3C)c2C)C1 (mixture of isomers) [Example 2023, N,N-diethyl-1-(3-((3′-(3-((R)-3-hydroxypyrrolidin-1-yl)propoxy)-2,2′-dimethyl-[1,1′-biphenyl]-3-yl)oxy)propyl)piperidine-3-carboxamide]",20.1 to 90
21,Cc1c(COc2cc(OCc3cncc(C#N)c3)c(CO)cc2Cl)cccc1-c1cccc(COc2cc(OCc3cncc(C#N)c3)c(CN[C@H](C(=O)O)[C@H](C)O)cc2Cl)c1C [Example 50230],0.04 to 20
22,Cc1c(COc2cc(OCc3cncc(C#N)c3)c(CO)cc2Cl)cccc1-c1cccc(COc2cc(OCc3cncc(C#N)c3)c(CN[C@@H](CCO)C(=O)O)cc2Cl)c1C [Example 50150],0.04 to 20
23,"Cc1c(OCCCNCCCO)cccc1-c1cccc(OCCCNC[C@H](O)CO)c1C [Example 2080, (S)-3-((3-((3′-(3-((3-hydroxypropyl)amino)propoxy)-2,2′-dimethyl-[1,1′-biphenyl]-3-yl)oxy)propyl)amino)propane-1,2-diol]",0.04 to 20
24,"Cc1c(COc2cc(OCc3cc(F)cc(F)c3)c(CN(C)C(C)(CO)CO)cc2Cl)cccc1-c1cccc(COc2cc(OCc3cc(F)cc(F)c3)c(CN(C)C(C)(CO)CO)cc2Cl)c1C [Example 5012, 2,2′-((((((2,2′-dimethyl-[1,1′-biphenyl]-3,3′-diyl)bis(methylene))bis(oxy))bis(5-chloro-2-((3,5-difluorobenzyl)oxy)-4,1-phenylene))bis(methylene))bis(methylazanediyl))bis(2-methylpropane-1,3-diol)]",20.1 to 90
25,Cc1c(COc2cc(OCc3cncc(C#N)c3)c(CN(C)[C@@H](CCO)C(=O)O)cc2Cl)cccc1-c1cccc(COc2cc(OCc3cncc(C#N)c3)c(CN(C)[C@@H](CCO)C(=O)O)cc2Cl)c1C [Example 40760],0.04 to 20
26,"Cc1c(OCCCN2CCCC(CO)C2)cccc1-c1cccc(OCCCN2CC[C@@H](O)C2)c1C (mixture of isomers) [Example 2003, (3R)-1-(3-((3′-(3-(3-(hydroxymethyl)piperidin-1-yl)propoxy)-2,2′-dimethyl-[1,1′-biphenyl]-3-yl)oxy)propyl)pyrrolidin-3-ol]",20.1 to 90

# Same assay, conditions: numeric IC50; PD-L1-His 10 nM, PD-1-Ig 20 nM; read-out: Range or IC50
row,Compound,IC50 [nM]
1,Cc1c(COc2cc(OCc3cncc(C#N)c3)c(Cl)cc2Cl)cccc1-c1cccc(COc2cc(OCc3cncc(C#N)c3)c(CN[C@@H](C(=O)O)[C@H](C)O)cc2Cl)c1C [Example 70040],1050
